Values of other authors in patent US7524883B2, “Eponemycin and epoxomicin analogs and uses thereof” (Eisai R&D Management Co., Ltd., priority 2002, dated 2009).

System: 20S proteasome

Row | SMILES | binding to the 20S proteasome
1 | CC[C@H](C)[C@H](NC(=O)[C@H]([C@@H](C)CC)N(C)C(C)=O)C(=O)N[C@H](C(=O)N[C@@H](CC(C)C)C(=O)[C@@]1(C)CO1)[C@@H](C)O [Epoxomicin] | bind covalently and irreversibly
2 | C=C(C)C[C@H](NC(=O)[C@H](CO)NC(=O)CCCCC(C)C)C(=O)[C@@]1(CO)CO1 [Eponemycin] | bind covalently and irreversibly
